# Laboratory results reported in PubChem BioAssay (NCI).
#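 Results reflect a 48-hour exposure of cells in 96-well plates to compound at five concentrations. Here, GI50 denotes the concentration required for 50% inhibition of growth. TGI marks complete inhibition of growth.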
# How the values were obtained:
# Assay in all cases: inhibition of tumour cell growth, NCI panel, 48 h
# [1] = system: 786-0 renal
# [2] = system: CCRF-CEM leukemia
# [3] = system: IGROV1 ovarian
# [4] = system: NCI-H226 lung
# [5] = system: OVCAR-8 ovarian
# [6] = system: SN12C renal
# [7] = system: SNB-75 CNS
# [8] = system: UO-31 renal
# [9] = system: KM12 colon
# [10] = system: HS 578T breast
Structure (SMILES),TGI [1],TGI [2],TGI [3] [µM],TGI [4],TGI [5],TGI [6],TGI [7],TGI [8] [µM],GI50 [1],GI50 [2],GI50 [3] [µM],GI50 [9],TGI [9],GI50 [4],GI50 [5],GI50 [6],GI50 [7],GI50 [8] [µM],TGI [10],GI50 [10]
COC(=O)C(=O)C(C#N)c1nc2ccccc2s1 (configuration not stated),> 100 µM,> 100 µM,> 100,> 100 µM,> 100 µM,> 100 µM,> 100 µM,> 100,–,–,–,–,–,–,–,–,–,–,–,–
CN(C)CCC(N)(P(=O)([O-])[O-])P(=O)([O-])[O-].N.N.[Pt+2],> 100 µM,> 100 µM,> 100,> 100 µM,> 100 µM,> 100 µM,> 100 µM,> 100,> 100 µM,> 100 µM,> 100,> 100 µM,> 100 µM,> 100 µM,> 100 µM,> 100 µM,> 100 µM,> 100,–,–
Cc1c(C(Cc2ccccc2N(C)C(=O)/C=C\C(=O)O)c2c[nH]c3ccccc23)c2ccccc2n1C (configuration not stated),35.9 µM,37.1 µM,39.8,43 µM,29.4 µM,30 µM,33.7 µM,27.7,–,–,–,–,29.1 µM,–,–,–,–,–,–,–
Cc1cc(N(CCC#N)CCC#N)ccc1/C=C(\NC(=O)/C=C/c1ccccc1)C(=O)N=[N+]=[N-],> 100 µM,> 100 µM,> 100,> 100 µM,> 100 µM,> 100 µM,62 µM,> 100,–,–,–,–,–,–,–,–,–,–,–,–
CCN(CC)CC(=O)NC1c2ccccc2Oc2ccccc21,> 100 µM,> 100 µM,> 100,> 100 µM,> 100 µM,> 100 µM,> 100 µM,> 100,–,–,–,–,–,–,–,–,–,–,–,–
C=C(CO)C(=O)OC1CC(=C)C2CC(O)C(C)C2C2OC(=O)C(=C)C12 (configuration not stated),> 100 µM,77.7 µM,39.3,–,69.9 µM,32.7 µM,45.6 µM,36.6,–,–,–,–,33.6 µM,–,–,–,–,–,47.5 µM,–
CC(C)(CN1CCCCC1)C(=O)/C=C/c1ccccc1,27.3 µM,35.4 µM,86.6,69.8 µM,49.5 µM,42.3 µM,39.3 µM,39.6,–,–,–,–,28.9 µM,–,–,–,–,–,–,–
O=C(/C=C/c1ccccc1)NC1C=Nc2ccc([N+](=O)[O-])cc2NC1=O (configuration not stated),> 100 µM,> 100 µM,> 100,> 100 µM,> 100 µM,> 100 µM,> 100 µM,> 100,–,–,–,–,86.7 µM,–,–,–,–,–,–,–
O=C(O)c1ccc(N(/C=C/C(=O)C(F)(F)F)Cc2ccc(Cl)cc2)cc1,> 100 µM,> 100 µM,48.9,–,78.4 µM,> 100 µM,–,15.7,31.4 µM,25.8 µM,20.3,23.2 µM,59.9 µM,–,26.1 µM,32.3 µM,–,1.19,84.7 µM,26.4 µM
CC(C)(C)CC(C)(C)c1ccc(OCCO)cc1,33.7 mg/L,40.1 mg/L,–,15.8 mg/L,> 75 mg/L,16.7 mg/L,18.1 mg/L,–,10.9 mg/L,6.02 mg/L,–,7.81 mg/L,18.6 mg/L,2.44 mg/L,3.31 mg/L,6.38 mg/L,3.45 mg/L,–,19.6 mg/L,4.26 mg/L
CN(C)CC1CC/C(=C\c2ccc(Cl)c(Cl)c2)C1=O (configuration not stated),26.7 µM,22.7 µM,> 69.6,> 100 µM,> 58.9 µM,> 55.8 µM,> 66.6 µM,> 55.9,–,–,–,–,35.7 µM,–,–,–,–,–,–,–
NS(=O)(=O)c1ccc(N(/C=C/C(=O)C(F)(F)F)CC(=O)c2ccc(F)cc2)cc1,> 100 µM,41.5 µM,52.5,40.9 µM,> 100 µM,45.3 µM,–,> 100,44.7 µM,15.6 µM,24.8,24.5 µM,57.9 µM,22.6 µM,42.3 µM,19.4 µM,–,31.9,–,–
CC(=O)N1C/C(=C\c2ccccc2)C(=O)/C(=C/c2ccccc2)C1,30.2 µM,11.3 µM,37.4,35.5 µM,24.4 µM,28.7 µM,40.9 µM,34.4,–,–,–,–,12.1 µM,–,–,–,–,–,–,–
O=C(CCc1n[nH]c(=S)o1)Nc1cc(Cl)ccc1Cl,99.2 µM,> 100 µM,> 100,> 100 µM,> 100 µM,> 100 µM,> 100 µM,> 100,–,–,–,–,> 100 µM,–,–,–,–,–,–,–
NC(N)NCCCc1cn2c(n1)C1CCCN1C(=O)C2Cc1ccccc1 (configuration not stated),> 100 µM,> 100 µM,> 100,> 100 µM,> 100 µM,> 100 µM,> 100 µM,> 100,–,–,–,–,> 100 µM,–,–,–,–,–,–,–
COc1cc(/C=C2\CC3C4CC=C5CC(OC(C)=O)CC[C@]5(C)C4CC[C@]3(C)C2=O)ccc1OCCN1CCCC1 (some centres not stated),14 µM,1.78 µM,> 44.7,30.9 µM,47 µM,26.6 µM,–,23.5,4.51 µM,0.268 µM,5.81,3.89 µM,15 µM,14.1 µM,13.8 µM,13.7 µM,–,8.67,42.7 µM,20 µM
N#CC(C(=O)CCCC(=O)Nc1ccccc1[N+](=O)[O-])c1c(Cl)cccc1Cl (configuration not stated),> 100 µM,> 100 µM,> 100,> 100 µM,> 100 µM,> 100 µM,> 100 µM,> 100,–,–,–,–,> 100 µM,–,–,–,–,–,–,–
CC(=O)C1(O)CC2(c3ccccc3)C(=O)C1(c1ccccc1)C(c1ccccc1)=C2c1ccccc1 (configuration not stated),> 100 µM,> 100 µM,> 100,> 100 µM,> 100 µM,> 100 µM,> 100 µM,> 100,–,–,–,–,> 100 µM,–,–,–,–,–,–,–
O=C1C2C3CC4C5C3C1C5C1(SCCS1)C42 (configuration not stated),> 100 µM,> 100 µM,> 100,> 100 µM,> 100 µM,> 100 µM,> 100 µM,> 100,–,–,–,–,> 100 µM,–,–,–,–,–,–,–
O=C(O)/C=C/c1ccc(O)c(O)c1,> 100 µM,> 100 µM,> 100,> 100 µM,> 100 µM,> 100 µM,> 100 µM,> 100,–,–,–,–,> 100 µM,–,–,–,–,–,–,–
O=S1OC(c2ccccc2)(c2ccccc2)C(c2ccccc2)(c2ccccc2)O1,> 100 µM,> 100 µM,> 100,> 100 µM,> 100 µM,> 100 µM,> 100 µM,> 100,–,–,–,–,> 100 µM,–,–,–,–,–,–,–
Cn1cc(C2NC(=O)c3ccccc3N2)c2ccccc21 (configuration not stated),> 100 µM,0.877 µM,> 100,3.59 µM,> 100 µM,> 100 µM,–,> 100,–,–,–,–,26.9 µM,–,–,–,–,–,–,–
C=CCC1(O)c2ccccc2C(=O)c2c(OCC(=O)OCC)ccc(OCC(=O)OCC)c21 (configuration not stated),> 100 µM,> 100 µM,> 100,> 100 µM,> 100 µM,> 100 µM,–,> 100,> 100 µM,> 100 µM,> 100,> 100 µM,> 100 µM,> 100 µM,> 100 µM,87.6 µM,–,> 100,> 100 µM,> 100 µM
NC1=C(O)c2cccc3cccc(c23)C1=O,> 100 µM,> 100 µM,> 100,> 100 µM,> 100 µM,> 100 µM,> 100 µM,> 100,–,–,–,–,> 100 µM,–,–,–,–,–,–,–
Cc1ccc(S(=O)c2ccccc2[N+](=O)[O-])cc1 (configuration not stated),> 100 µM,> 100 µM,> 100,85.9 µM,> 100 µM,> 100 µM,–,> 100,–,–,–,–,> 100 µM,–,–,–,–,–,–,–
O=c1nc2n(-c3cccc(Cl)c3)c3ccc([N+](=O)[O-])cc3cc-2c(=O)[nH]1,9.5 µM,> 25 µM,> 25,13.6 µM,> 25 µM,10.6 µM,> 25 µM,13,4.49 µM,2.09 µM,17.4,3.13 µM,7.57 µM,5.51 µM,17 µM,4.55 µM,11.7 µM,5.87,–,–
COc1ccc(C(=O)C(C(=O)CCC(=O)Nc2ccc(Cl)c(Cl)c2)c2ccc(OC)cc2)cc1 (configuration not stated),> 100 µM,> 100 µM,> 100,> 100 µM,> 100 µM,> 100 µM,> 100 µM,> 100,–,–,–,–,> 100 µM,–,–,–,–,–,–,–
C/C(CN1C(=O)c2ccccc2C1=O)=N\NS(=O)(=O)c1ccc2ccccc2c1,> 100 µM,> 100 µM,> 100,> 100 µM,> 100 µM,> 100 µM,> 100 µM,> 100,–,–,–,–,> 100 µM,–,–,–,–,–,–,–
O=S(=O)(NCCCNc1cc(-c2cn(-c3ccccc3)nc2-c2cccc(O)c2)ccn1)c1ccc(C(F)(F)F)cc1,3.7 µM,–,9.55,6.25 µM,7.66 µM,3.67 µM,5.06 µM,5.74,1.57 µM,–,3.24,1.89 µM,4.49 µM,2.31 µM,2.47 µM,1.81 µM,1.45 µM,2.04,5.77 µM,1.46 µM
